# Active and inactive are the calls of the source. No cut-off for these calls is given here.
# How the values were obtained:
# Candida albicans [1] = test: Antimicrobial activity against fluconazole resistant Candida albicans isolate 3795 expressing high levels of ERG11 and UPC2 mRNA by microdilution method; assay type: functional
# Candida albicans [2] = test: Antimicrobial activity against Candida albicans isolate SC5314 expressing UPC2/UPC2 A643T mutant allele by microdilution method relative wild type; assay type: functional, organism-based
# Candida albicans [3] = test: Antimicrobial activity against fluconazole susceptible Candida albicans isolate 1002 expressing low levels of ERG11 and UPC2 mRNA by microdilution method; assay type: functional
# Candida albicans [4] = test: Antimicrobial activity against fluconazole resistant Candida albicans isolate 2440 expressing high levels of ERG11 and UPC2 mRNA by microdilution method; assay type: functional
# Candida albicans [5] = test: Antimicrobial activity against Candida albicans isolate SC5314 expressing UPC2 G648D/UPC2 G648D double mutant alleles by microdilution method relative wild type; assay type: functional
# Candida albicans [6] = test: Antimicrobial activity against Candida albicans isolate SC5314 expressing UPC2/UPC2 G648D mutant allele by microdilution method relative wild type; assay type: functional
# Candida albicans [7] = test: Antimicrobial activity against fluconazole susceptible Candida albicans 5054 expressing low levels of ERG11 and UPC2 mRNA by microdilution method; assay type: functional
# Candida albicans [8] = test: Antimicrobial activity against fluconazole susceptible Candida albicans isolate 945 expressing low levels of ERG11 and UPC2 mRNA by microdilution method; assay type: functional
# Candida albicans [9] = test: Antimicrobial activity against fluconazole susceptible Candida albicans isolate 5052 expressing low levels of ERG11 and UPC2 mRNA by microdilution method; assay type: functional
# Candida albicans [10] = test: Antimicrobial activity against Candida albicans isolate SC5314 expressing UPC2 G648D/UPC2 A643T double mutant alleles by microdilution method relative wild type; assay type: functional, organism-based
# Candida albicans [11] = test: Antimicrobial activity against fluconazole susceptible Candida albicans isolate 580 expressing low levels of ERG11 and UPC2 mRNA by microdilution method; assay type: functional
# Candida albicans [12] = test: Antimicrobial activity against fluconazole resistant Candida albicans isolate 1619 expressing high levels of ERG11 and UPC2 mRNA by microdilution method; assay type: functional
smiles,measurement,setting,value
OC(Cn1cncn1)(Cn1cncn1)c1ccc(F)cc1F [FLUCONAZOLE],MIC,Candida albicans [1],> 64 mg/L
same,MIC,Candida albicans [2],inactive
same,MIC,Candida albicans [3],0.25 mg/L
same,MIC,Candida albicans [4],32 mg/L
same,Ratio,Candida albicans [5],8
same,Ratio,Candida albicans [6],4
same,MIC,Candida albicans [7],4 mg/L
same,MIC,Candida albicans [8],4 mg/L
same,MIC,Candida albicans [9],32 mg/L
same,MIC,Candida albicans [10],inactive
same,MIC,Candida albicans [11],1 mg/L
same,MIC,Candida albicans [12],32 mg/L
